The text below walks through data of patent publication US8957190B2, “Use of heat-resistant biotin-binding protein, and solid support having the protein attached thereto” (Japan Tobacco Inc., priority 2006, dated 2015).

The term Kd denotes the equilibrium constant for the complex coming apart.

Data set [1] is described as follows: Activity measurement by means of fluorescent biotin (method of Kada et al.). In kind it is binding. The conditions noted are these: room temperature, 10 minutes. The protocol: By means of fluorescent biotin, tamavidin 2 was measured for its biotin-binding activity according to the method of Kada et al. (Biochim. Biophys. Acta., 1427: 44-48, (1999)). Solutions were prepared to contain the purified TM2 at stepwise concentrations from 0 pmol to 486 pmol in 200 μl assay buffer (50 mM NaH2PO4, 100 mM NaCl, 1 mM EDTA (pH 7.5)). These solutions were each mixed with 50 μL (1 nmol) of a 20 pmol/μL fluorescent biotin solution (biotin-4-fluorescein; Molecular Probe) and allowed to stand at room temperature for 10 minutes, followed by measuring the fluorescence intensity with a Las-3000 system (FUJIFILM). As a result, 0.274 nmol of TM2 was bound to nmol of fluorescent biotin. Namely, 3.6 mol of fluorescent biotin was bound to 1 mol of tamavidin. […] In the case of streptavidin, 3.4 mol of fluorescent biotin was bound per mol of streptavidin.

For data set [2] the following is noted: background art; cited from earlier work.
In the next data set the test system is salmon sperm DNA. Description: Test for non-specific binding to DNA (slot blot, antibody detection). The conditions noted are these: 25 μg/mL protein, salmon sperm DNA 10 μg to 0.3 μg on membrane. The protocol:
TM2 was analyzed for its non-specific binding to DNA. Serial dilutions of salmon sperm DNA (10 μg to 0.3 μg) in 2×SSC buffer were alkali-denatured and adsorbed onto a Hybond N+ membrane (Amersham Biosciences) using Bio-Dot SF (BIO-RAD). The membrane was blocked with 5×Denhardt's solution (0.1% BSA, 0.1% Ficoll, 0, 1% polyvinylpyrrolidone) and then immersed in a 25 μg/mL TM2, streptavidin or avidin solution at room temperature for 90 minutes. The membrane was then washed three times with TTBS buffer (TBS buffer containing 0.05% Tween 20) at room temperature for 5 minutes. The membrane was blocked with TBS buffer containing 0.5% skimmed milk and 0.01% Tween 20 for 1 hour. The primary antibodies used were rabbit anti-TM2 antibody (purified as described above) for TM2, rabbit anti-streptavidin antibody (SIGMA) for streptavidin, and rabbit anti-avidin antibody (Abcam) for avidin, which were diluted to give the same antibody titer before use. Antigen-antibody reaction with each primary antibody was performed overnight at room temperature. […] The membrane was washed three times with TTBS buffer at room temperature for 5 minutes, and then developed with an Alkaline Phosphatase substrate kit II, vector Black (Funakoshi Co., Ltd., Japan), followed by quantification with a Las-3000 system (FUJIFILM).

Data set [3] in a line: Kinetic analysis of tamavidin 2-biotin interaction using a Biacore 3000 biosensor (surface plasmon resonance). It is filed as binding. The note with it: Biacore 3000, 25° C. The protocol:
Kinetic Analysis of Tamavidin 2 (TM2)-Biotin Interaction Using a Biacore Biosensor
Highly-purified BSA (2 mg, Sigma) and NHS-biotin (1 mg, Pierce) were dissolved in 1 ml of 50 mM sodium borate pH 8.0 and incubated at 4° C. for 2 hours. The NHS-biotin (EZ-Link NHS-LC-LC-Biotin) had been dissolved in a small volume of DMSO before addition. This solution was introduced into a dialysis tube (MWCO 6-8,000) and dialyzed overnight at 4° C. against 50 mM sodium carbonate pH 6.7. The biotin-BSA conjugate thus prepared (MW 67 kDa, 30 μM) was used as a ligand (a substance immobilized on a sensor chip) for a Biacore® biosensor. On the other hand, recombinant tamavidin 2 was prepared as an analyte (a substance flowing through channels) and analyzed for intermolecular interactions using a Biacore® 3000 (a biosensor designed on the principle of surface plasmon resonance, Biacore Inc.). Biotin-BSA and BSA alone (serving as a negative control) were each immobilized on CM5 sensor chips by amine coupling techniques. Their immobilized amount was adjusted to around 200 RU. BSA-immobilized chips were placed in flow cells 1 and 3, while biotin-BSA-immobilized chips were placed in flow cells 2 and 4. Tamavidin 2 was loaded into flow cells 1 and 2, while streptavidin was loaded into flow cells 3 and 4, each being loaded at a flow rate of 20 μl/min for 2 minutes in running buffer [10 mM HEPES pH 7.4, 150 mM NaCl, 3 mM EDTA, 0.005% Surfactant 20 (Biacore Inc.)]. The samples were then monitored for their dissociation over 60 minutes. […] The dissociation constant (Kd) was determined from kd/ka.
It should be noted that when the regeneration step was skipped, Rmax (the maximum binding amount of an analyte) was reduced ever time the measurement at each concentration was made. For this reason, Rmax was calculated by local fitting for each concentration during analysis. […]
Background: SPR reads the build-up and loss of mass on a sensor chip optically.

Data set [4] is described as follows: Heat resistance: fluorescent biotin-binding activity of heated biotin-binding proteins. The note with it: for temperature which caused a 50% reduction in fluorescence intensity decrement compared to the unheated sample: free protein, heated 20 minutes; for reduction of binding activity to fluorescent biotin: 20 minutes. The protocol: Based on the property of fluorescent biotin to lose its fluorescence intensity when bound to a biotin-binding site in a biotin-binding protein, tamavidin 2 was compared with streptavidin and avidin for biotin-binding capacity under high temperature conditions.
About 0.25 μg/μL TM2 and streptavidin were heated at room temperature, 50° C., 60° C., 70° C., 80° C. or 90° C. for 20 minutes. Solutions were prepared to contain the heat-treated TM2 or streptavidin at stepwise concentrations from 0 μL to 27 μL in 150 μL assay buffer (50 mM NaH2PO4, 100 mM NaCl, 1 mM EDTA (pH 7.5)). These solutions were each mixed with 50 μL (250 pmol) of a 5 pmol/μL fluorescent biotin solution (biotin-4-fluorescein; Molecular Probe) and allowed to stand at room temperature for 20 minutes, followed by measuring the fluorescence intensity with a Las-3000 system (FUJIFILM).
Heat resistance test on the biotin-binding proteins was accomplished as follows. About 0.25 μg/μL biotin-binding protein was heated at room temperature, 50° C., 60° C., 70° C., 80° C. or 90° C. for 20 minutes. Solutions were prepared to contain the heated biotin-binding protein at stepwise concentrations from 0 μL to 12 μL in 150 μL assay buffer. These solutions were each mixed with 50 μL (100 pmol) of a 2 pmol/μL fluorescent biotin solution and allowed to stand at room temperature for 20 minutes, followed by measuring the fluorescence intensity at Ex=460 nm and Em=525 nm with an Infinite M200 (TECAN).

A short description of data set [5]: Heat resistance: protein stability (heating, SDS-PAGE band quantification). In kind it is physicochemical. The note with it: heated 20 minutes, soluble protein, SDS-PAGE, no biotin. As for the experimental part:
(§1) 0.2 μg/μL TM2 and 0.2 μg/μL streptavidin were heated in 10 μL (2 μg) volumes at room temperature, 50° C., 60° C., 70° C., 80° C., 90° C. or 99° C. for 20 minutes, followed by centrifugation at 15000 rpm for 10 minutes. Each supernatant (soluble protein) was suspended in an equal volume of 2×SDS sample buffer (100 mM Tris-HCl pH 6.8, 12% 2-mercaptoethanol, 2% SDS, 20% glycerol), heated at 95° C. for 10 minutes and then analyzed by SDS-PAGE. Protein bands were detected by CBB staining. Using a Las-3000 system (FUJIFILM), a calibration curve was prepared based on quantification markers (LMW ELECTROPHORESIS CALIBRATION KIT; Pharmacia Biotech) and used to quantify the protein bands. […]
as §1, with “Purified tamavidin 1 at a concentration of 0.2” for “0.2”, “was” for “TM2 and 0.2 μg/μL streptavidin were”

Where [6] appears, read: 1:1 binding model, biotin-BSA ligand.

In the case of “Streptavidin: biotin-binding protein derived from an actinomycete strain (Streptomyces avidinii) [reference compound]”, the “fluorescent biotin bound per mol of protein” value in data set [1] came out at 3.4 mol. Besides, the isoelectric point result in data set [2] is “around neutral pH”. Further, in the data set with salmon sperm DNA, the “non-specific binding to DNA (staining intensity versus DNA concentration)” value is “not strongly affected by DNA concentration”. For the same substance, in data set [3] (setting [6]), the “Association rate constant ks” value is 2.28e+06 M⁻¹ s⁻¹ and the “Dissociation rate constant kd” value was determined as 2.52e-06 s⁻¹. In data set [3] (determined from kd/ka, read-out: Dissociation constant Kd), the Kd came to 1.11 pM. Further, in data set [4], the “temperature which caused a 50% reduction in fluorescence intensity decrement compared to the unheated sample” value came to 73 °C. In addition, in data set [4] (heated at 70° C.), the “reduction of binding activity to fluorescent biotin” value (“reduction of binding activity” for short) came out at 40%. In addition, the “reduction of binding activity” value in data set [4] (heated at 80° C.) is 80%. Moreover, the “temperature which caused a 50% reduction in protein band intensity” value in data set [5] worked out at 71 °C.

In the case of “avidin: albumen-derived basic glycoprotein binding biotin”, the isoelectric point entry in data set [2] was “exceeding 10”. Besides, in the data set on salmon sperm DNA, the “non-specific binding to DNA (staining intensity versus DNA concentration)” value is “DNA concentration-dependent increase in its staining intensity”. For the same substance, the “temperature which caused a 50% reduction in fluorescence intensity decrement compared to the unheated sample” value in data set [4] was determined as 78 °C. For the same substance, the entries for the “reduction of binding activity” value in data set [4] (heated at 70° C.) and in data set [4] (heated at 80° C.) were 10% and 70%, respectively.
